# Results from patent US20110150767A1, “ALPHA-SUBSTITUTED AND ALPHA-UNSUBSTITUTED AROMATIC AMINO ACID DERIVATIVES AND COMPOSITIONS THEREOF FOR USE TO TREAT, DIAGNOSE, OR MONITOR A MEDICAL CONDITION” (priority 2009, published 2011).
# Experiments:
# [1] = target: T1, human L-type amino acid transporter 1 (LAT1; S2-hLAT1 cells) (Homo sapiens, UniProt Q01650); assay: Inhibition of L-[14C]leucine uptake in S2-LAT1 cells; format: cell-based; conditions: inhibition of 1.0 μM L-[14C]leucine uptake, 1.0 min, 37° C., NI = no inhibition at 100 μM
# T1 construct: expressed in transfected cells; host or cells: S2 cells (S2-hLAT1 / S2-LAT1); mammalian cell line described in Morimoto et al., J Pharmacol Sci 2008, 108, 505-516
# T1 sequence (Q01650 whole entry, one chain of several): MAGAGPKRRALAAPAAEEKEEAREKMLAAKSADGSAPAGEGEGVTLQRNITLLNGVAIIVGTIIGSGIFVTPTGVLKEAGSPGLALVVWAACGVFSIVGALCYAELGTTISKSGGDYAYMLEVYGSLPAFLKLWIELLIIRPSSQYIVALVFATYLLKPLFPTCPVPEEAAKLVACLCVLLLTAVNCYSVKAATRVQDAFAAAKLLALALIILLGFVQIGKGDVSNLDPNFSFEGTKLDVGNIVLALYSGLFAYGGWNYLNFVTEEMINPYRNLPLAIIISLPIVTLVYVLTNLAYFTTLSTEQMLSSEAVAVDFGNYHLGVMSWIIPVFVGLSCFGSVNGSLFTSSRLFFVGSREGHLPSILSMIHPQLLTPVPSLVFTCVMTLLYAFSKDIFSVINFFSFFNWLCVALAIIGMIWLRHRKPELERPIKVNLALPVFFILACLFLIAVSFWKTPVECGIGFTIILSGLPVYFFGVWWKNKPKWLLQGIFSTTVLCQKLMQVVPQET
# Description: (§1) The establishment and characterization of mammalian cell lines expressing human L-type amino acid transporterss (i.e. S2-hLAT1 and S2-hLAT2) has been previously described (Morimoto et al., Journal of Pharmacological Sciences, 2008, 108, 505-516).
# (§2) General test procedures are as follows: All test compounds were dissolved in dimethyl sulfoxide (DMSO) to prepare stock solutions at the concentrations of 0.05, 0.5, 5.0 and 50 mM; next, these stock solutions were used and diluted with uptake solution to make final test concentrations of 0.10, 1.00, 10.0 and 100 μM, respectively. Therefore, all compounds used for uptake experiment were in uptake solution containing 0.2% DMSO; experiments are performed in triplicate for each concentration. For control uptake, only DMSO was added into the uptake solution to a final concentration of 0.2%.
# (§3) S2-LAT1 and S2-LAT2 cells were seeded (1.3×10^5 cells/well) into 24-well plates and cultured at 33° C. (5% CO2) for 2-3 days until confluent (90%-100% confluence). Uptake experiments were performed at 37° C. The culture medium was removed and washed 3 times with uptake solution (37° C.; Hank's Na^+ free buffer consisting of 125 mM choline chloride, 4.8 mM KCl, 1.3 mM CaCl2, 1.2 mM MgCl2, 25.0 mM HEPES, and 5.0 mM Tris, pH 7.4, supplemented with D-glucose (5.6 mM). The cells were equilibrated in uptake solution (300 μL; 37° C.) for 12 min. The equilibrated solution was removed and uptake solution containing radio-labeled compound (1.0 μM L-[^14C] Leucine) with or without test compound (300 μL) was added to the cells (1.0 min). The test solution was removed and the cells washed 3 times with ice-cold uptake solution. The cells are then solubilized with 0.1N NaOH (0.5 mL) and transferred to scintillation vials. Liquid scintillation fluid (3.0 mL; aquasol-2) was added, mixed and substrate accumulation was measured by counting radioactivity via liquid scintillation counting (LSC; LSC6100, Aloka, Tokyo). The uptake value and % of inhibition were calculated to afford IC50 values.
# [2] = target: T2, human L-type amino acid transporter 2 (LAT2; S2-hLAT2 cells) (Homo sapiens, UniProt Q9UHI5); assay: Inhibition of L-[14C]leucine uptake in S2-LAT2 cells; format: cell-based; conditions: inhibition of 1.0 μM L-[14C]leucine uptake, 1.0 min, 37° C., NI = no inhibition at 100 μM
# T2 construct: expressed in transfected cells; host or cells: S2 cells (S2-hLAT2 / S2-LAT2); mammalian cell line described in Morimoto et al., J Pharmacol Sci 2008, 108, 505-516
# T2 sequence (Q9UHI5 1-535): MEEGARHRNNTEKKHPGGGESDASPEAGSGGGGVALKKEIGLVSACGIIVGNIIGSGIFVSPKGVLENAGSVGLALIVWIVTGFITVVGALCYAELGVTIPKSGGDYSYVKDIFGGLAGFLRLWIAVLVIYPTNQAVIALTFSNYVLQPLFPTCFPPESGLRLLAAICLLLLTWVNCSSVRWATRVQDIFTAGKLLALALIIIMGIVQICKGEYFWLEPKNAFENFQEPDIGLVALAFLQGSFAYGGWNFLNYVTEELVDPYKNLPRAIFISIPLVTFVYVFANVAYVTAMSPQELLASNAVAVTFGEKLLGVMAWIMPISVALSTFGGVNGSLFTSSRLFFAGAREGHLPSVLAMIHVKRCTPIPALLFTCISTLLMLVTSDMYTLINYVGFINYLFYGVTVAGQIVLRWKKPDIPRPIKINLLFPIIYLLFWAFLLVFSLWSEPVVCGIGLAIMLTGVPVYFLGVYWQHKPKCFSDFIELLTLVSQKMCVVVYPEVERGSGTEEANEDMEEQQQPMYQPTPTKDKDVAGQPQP
# T2 sequence (P08195 1-529 partner): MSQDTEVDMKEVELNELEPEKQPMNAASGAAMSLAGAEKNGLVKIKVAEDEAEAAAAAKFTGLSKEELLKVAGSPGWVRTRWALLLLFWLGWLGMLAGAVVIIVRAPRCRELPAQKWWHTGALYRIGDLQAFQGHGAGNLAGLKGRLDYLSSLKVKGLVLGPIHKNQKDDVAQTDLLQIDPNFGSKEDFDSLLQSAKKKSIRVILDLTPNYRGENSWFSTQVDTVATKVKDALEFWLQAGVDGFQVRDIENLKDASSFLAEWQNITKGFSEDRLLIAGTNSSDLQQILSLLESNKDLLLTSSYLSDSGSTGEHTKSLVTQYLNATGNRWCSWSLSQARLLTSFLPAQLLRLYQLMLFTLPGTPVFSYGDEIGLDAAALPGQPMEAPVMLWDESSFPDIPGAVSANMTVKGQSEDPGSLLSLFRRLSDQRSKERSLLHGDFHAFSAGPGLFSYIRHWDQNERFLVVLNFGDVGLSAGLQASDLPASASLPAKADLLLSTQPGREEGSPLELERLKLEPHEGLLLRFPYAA
# Description: as §1, §2, §3
compound,measurement,setting,value
COc1ccccc1CCOc1c(Br)cc(C[C@H](N)C(=O)O)cc1Br [compound 54],IC50,[1],5.4 µM
same,IC50,[2],> 100 µM
